Reference: patent publication US20140196172A1, “Organelle Targeting Nanocarriers” (Her Majesty the Queen in Right of Canada, as Repre sented …, priority 2011, published 2014)

Key:
tobacco protoplasts = experiment: Incubation of tobacco protoplasts with fluorescently labeled peptides, confocal microscopy; assay type: cell-based, Nicotiana benthamiana; conditions: fluorescein-labelled peptide 20 μM, 1 hour, confocal (Olympus)
Experimental: Nicotiana benthamiana plants are grown for 6-8 weeks and kept in the dark for 24 hrs prior to all experiments. All pipetting is done slowly with wide bore pipette tips to prevent protoplast lysis. Leaves are cut on the underside in many shallow thin slices, with the center vein taken out, and incubated underside down with enzyme digest solution [2% cellulase and 2% macerozyme (Yakult Honsha Co Ltd, Japan) in CPW (cell protoplast washing) solution, pH 5.6 (Frearson E M, Power J B, Cocking E C (1973) Dev Biol 33: 130-137)] in […] Petri dishes for 3-5 hrs at 28° C. After incubation, leaves are gently shaken with forceps to release any remaining protoplasts, and medium is gently filtered through […] sieves and transferred into 50 mL centrifuge tubes. The medium is spun for 5 min at 300 g at 4° C., and a floating band of protoplasts is removed from the top of the suspension, resuspended in W5 wash solution (154 mM NaCl, 125 mM CaCl2.2H2O, 5 mM KCl, 5 mM glucose, 0.5 M mannitol adjusted to pH 5.8 with 0.1 M KOH), and spun for 3 mins at 300 g at 4° C. The pellet is gently layered on 5 mL of 20% maltose in a 15 mL centrifuge tube, and centrifuged 5 mins at 300 g. A floating band in the center of the solution is carefully removed and resuspended with MaMg solution (15 mM MgCl2, 0.1% MES, 0.4 M mannitol, adjusted to pH 5.6 with KOH), and spun for 3 mins at 300 g at 4° C. The protoplast suspension is diluted to 100,000 cells/ml using a hemocytometer.
A stock solution of fluoresceinated mTPs or cTPs (100 μM) prepared with sterile optimum water is added to protoplast suspension at a final concentration of 20 μM. Each suspension is incubated at room temperature for 1 hour in the dark. Following incubation, 25% Trypsin EDTA is added for 5 minutes and the solution is centrifuged for 2 minutes at 120 g. The pellet is resuspended in fresh MaMg media, and 1.5 μL MitoTracker® Orange CM-H2TMRos (M7511, Invitrogen) is added for 15 minutes, followed by centrifugation for 2 minutes at 120 g. Protoplasts are mounted on slides in 1% low melting point agar (2:1 ratio of agar to protoplast suspension) for confocal microscopy (Olympus; both XY cross section and XYZ depth images).
(§1) Cells are observed using a confocal microscope (Nikon C1, Nikon Canada Inc. or Olympus FluoView™) to analyse the localization of the fluoresceinated mTPs or cTPs (excitation wavelength 490 nm/emission wavelength 520 nm). Chloroplasts are identified by autofluorescence. The fluorescent dye MitoTracker® Orange CM-H2TMRos (M7511, Invitrogen) is used to stain mitochondria (excitation wavelength 554 nm/emission wavelength 576 nm). Fluorescence emissions are collected in z-confocal planes of […] and analyzed using EZ-C1 Software Version 3.6 (Nikon) or Olympus FluoView™ software version 2.0b (Olympus).

[1] = test system: Caco-2 (human colonic epithelial cell line); experiment: Uptake of labeled peptides by Caco-2 cells, photometric cell imaging; assay type: cell-based; conditions: for Average concentration of labeled peptide measured in cells, Caco-2: cells exposed to labeled peptide at 17 μM; for Photometric Cell Imaging (average counts/sec) Caco-2: 1 hr, background about 1×10^5 counts/sec
Experimental: (§2) Caco-2 and F1112 cells are cultured in Dulbecco's Modified Eagle Medium (DMEM) containing 10% (v/v) fetal bovine serum (FBS) and 50 μg/ml gentamycin at 37° C. in a 95% humidified atmosphere containing 5% CO2. The cells are grown in Falcon™ […] 75 cm^2 cell culture flasks until they reach confluency, then are detached with 0.25% trypsin and 0.02% EDTA and washed with DMEM.
(§3) Preparations used for photometric cell imaging are prepared by adding 1000 cells to a Nunc coverglass chamber (2.5 cm^2). Cells are cultured as described above for 3 to 7 days. The cell monolayers are rinsed three times with epithelial cell saline (pH 7.4).
(§4) Varying concentrations of fluoresceinated mTPs (100 μM) are added to epithelial cell saline to obtain a final working volume of 400 μl. Final concentrations added to the Caco-2, F1112 and MG cell monolayers as described above are 17 μM, 9 μM and 4 μM. Cells are incubated with the peptides for 1 hr in the dark at 37° C. in a 95% humidified atmosphere containing 5% CO2. At the end of the incubation period, the cell monolayer is rinsed three times with epithelial cell saline and 500 μl of epithelial cell saline is added.
(§5) Uptake of labeled peptides by cells is quantified using a photometric detector/cell-imaging system (PTI). An excitation scan is run to determine if uptake has occurred as indicated by peaks at the appropriate wavelengths and if the amount changes in a dose-dependent manner compared to unlabeled cells. A time-based scan is then performed at the optimal excitation and emission wavelength to quantify total uptake, using about 20 cells/view/replicate.

[2] = test system: MG (bovine mammary gland) cells; experiment: Uptake of labeled peptides by MG cells, photometric cell imaging; assay type: cell-based; conditions: for Average concentration of labeled peptide measured in cells, MG: cells exposed to labeled peptide at 17 μM; for Photometric Cell Imaging (average counts/sec) MG: 1 hr, background about 1×10^5 counts/sec
Experimental: as §2, with “MG” for “Caco-2 and F1112”, “20%” for “10%”, “Falcon™ 25” for “Falcon™”
as §3, §4, §5

[3] = test system: MDCK (Madin-Darby canine kidney) cells; experiment: Incubation of MDCK cells with fluorescently labeled peptides, confocal microscopy; assay type: cell-based; conditions: fluorescein-labelled peptide, 1 h, MitoTracker Orange
Experimental: MDCK cells are cultured in Dulbecco's Modified Eagle Medium (DMEM) containing 5% (v/v) fetal bovine serum (FBS) and 1% (v/v) penicillin/streptomycin at 37° C. in a humidified atmosphere containing 5% CO2. The cells grown on 10-cm dishes are detached with trypsin and ethylenediaminetetraacetic acid (EDTA) and washed with DMEM/FBS. Cells used for microscopy are prepared by adding 100 000 cells to the apical chamber of 12-mm diameter Transwell™ permeable supports (Costar, Cambridge, Mass.). Cells are cultured in DMEM/FBS for 3-5 days.
MDCK cells cultured in apical chambers of 12-mm diameter Transwell™ permeable supports are incubated with 80 μl fluoresceinated mTPs or cTPs (100 μM) and 320 μl of Dulbecco's Modified Eagle Medium (DMEM) for 1 h in the dark at room temperature, followed by washing with 400 μl of DMEM.
as §1

Sequence | Organelle localization (tobacco protoplasts) | Average concentration of labeled peptide measured in cells, Caco-2 [1] [nm] | Photometric Cell Imaging (average counts/sec) Caco-2 ([1]; labeled peptide 4 μM) [counts/sec] | Photometric Cell Imaging (average counts/sec) Caco-2 ([1]; labeled peptide 9 μM) [counts/sec] | Photometric Cell Imaging (average counts/sec) Caco-2 ([1]; labeled peptide 17 μM) [counts/sec] | Average concentration of labeled peptide measured in cells, MG [2] [nm] | Photometric Cell Imaging (average counts/sec) MG ([2]; labeled peptide 4 μM) [counts/sec] | Photometric Cell Imaging (average counts/sec) MG ([2]; labeled peptide 9 μM) [counts/sec] | Photometric Cell Imaging (average counts/sec) MG ([2]; labeled peptide 17 μM) [counts/sec] | Mitochondrial targeting [3]
MAALIPAIASLPRAQVEKPHPMPVSTRPGLVS (listed as Triticum aestivum) [cTP4] | localize to chloroplasts |  |  |  |  |  |  |  |  | 
MAAWMRSLFSPLKKLWIRMH (Zea mays) [mTP2] | localize to mitochondria | 20 | 340000 | 420000 | 490000 | 62 | 140000 | 160000 | 1500000 | non-specific mitochondrial localization
MFSYLPRYPLRAASARALVRATRPSYRSALLRYQ (listed as Triticum aestivum) [mTP1] |  | 70 | 200000 | 1200000 | 1600000 | 78 | 400000 | 1800000 | 1900000 | Specific mitochondrial targeting
MGGCVSTPKSCVGAKLR (listed as Arabidopsis thaliana) [cTP1] | localize to chloroplasts |  |  |  |  |  |  |  |  | 
MKLLWRLILSRKW (listed as Arabidopsis thaliana) [mTP3] | localize to mitochondria | 60 | 460000 | 1200000 | 1600000 | 62 | 430000 | 1000000 | 1500000 | Specific mitochondrial targeting
MLFRLRRSVRLRGLLA (listed as Arabidopsis thaliana) [mTP5] |  | 60 | 280000 | 650000 | 1600000 | 60 | 440000 | 1400000 | 1600000 | Specific mitochondrial targeting
MQTLTASSSVSSIQRHRPHPAGRRSSSVTFS (listed as Triticum aestivum) [cTP2] | localize to chloroplasts |  |  |  |  |  |  |  |  | 
MSSPPPLFTSCLPASSPSIRRDSTSGSVTSPLR (listed as Arabidopsis thaliana) [cTP5] | localize to chloroplasts |  |  |  |  |  |  |  |  | 
MWWRRSRTNSLRYT (listed as Arabidopsis thaliana) [mTP4] |  | 60 | 300000 | 1200000 | 1600000 | 58 | 430000 | 1200000 | 1400000 | non-specific mitochondrial localization
